Tests used:
Assay type in all cases: biochemical
B-Raf V600E = target: T1, B-Raf V600E (Homo sapiens, UniProt P15056, V600E); assay: AlphaScreen kinase assay, B-Raf V600E; details: read-out: IC50, activity toward kinase B-Raf V600E
T1 construct: P4254. pFastBacBD-CDC37 BRAF D437-K722-X, V600E; His6 with pFastBac HT leader (TEV site) (N); made in house; host or cells: Sf9 (baculovirus; chaperone CDC37 co-expressed)

Btk = target: T2, Btk (Homo sapiens, UniProt Q06187); assay: Z'-Lyte FRET kinase assay (Invitrogen), Btk; details: read-out: IC50, activity toward kinase Btk
T2 construct: purchased Invitrogen (assay run by Invitrogen)
T2 sequence (Q06187 whole entry): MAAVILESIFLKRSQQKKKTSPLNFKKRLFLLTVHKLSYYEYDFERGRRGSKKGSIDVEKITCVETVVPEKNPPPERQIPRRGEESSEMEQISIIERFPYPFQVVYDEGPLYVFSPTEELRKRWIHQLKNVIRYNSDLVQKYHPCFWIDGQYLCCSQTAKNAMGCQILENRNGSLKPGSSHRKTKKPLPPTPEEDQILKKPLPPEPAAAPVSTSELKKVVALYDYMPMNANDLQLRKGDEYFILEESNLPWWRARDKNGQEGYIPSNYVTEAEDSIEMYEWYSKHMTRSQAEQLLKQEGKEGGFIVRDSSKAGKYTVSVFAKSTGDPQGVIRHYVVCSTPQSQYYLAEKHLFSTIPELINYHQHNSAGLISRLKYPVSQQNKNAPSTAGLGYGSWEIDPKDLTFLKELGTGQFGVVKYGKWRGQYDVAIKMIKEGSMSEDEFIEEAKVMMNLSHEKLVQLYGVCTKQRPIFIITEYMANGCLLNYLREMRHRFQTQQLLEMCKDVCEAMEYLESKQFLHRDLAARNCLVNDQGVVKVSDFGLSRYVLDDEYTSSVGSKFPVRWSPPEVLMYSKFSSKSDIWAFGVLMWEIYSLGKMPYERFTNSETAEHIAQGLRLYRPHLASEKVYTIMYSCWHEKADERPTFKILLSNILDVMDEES

EphB2 = target: T3, EphB2 (Homo sapiens, UniProt P29323); assay: Z'-Lyte FRET kinase assay (Invitrogen), EphB2; details: read-out: IC50, activity toward kinase EphB2
T3 construct: purchased Invitrogen (assay run by Invitrogen)
T3 sequence (P29323 19-1055): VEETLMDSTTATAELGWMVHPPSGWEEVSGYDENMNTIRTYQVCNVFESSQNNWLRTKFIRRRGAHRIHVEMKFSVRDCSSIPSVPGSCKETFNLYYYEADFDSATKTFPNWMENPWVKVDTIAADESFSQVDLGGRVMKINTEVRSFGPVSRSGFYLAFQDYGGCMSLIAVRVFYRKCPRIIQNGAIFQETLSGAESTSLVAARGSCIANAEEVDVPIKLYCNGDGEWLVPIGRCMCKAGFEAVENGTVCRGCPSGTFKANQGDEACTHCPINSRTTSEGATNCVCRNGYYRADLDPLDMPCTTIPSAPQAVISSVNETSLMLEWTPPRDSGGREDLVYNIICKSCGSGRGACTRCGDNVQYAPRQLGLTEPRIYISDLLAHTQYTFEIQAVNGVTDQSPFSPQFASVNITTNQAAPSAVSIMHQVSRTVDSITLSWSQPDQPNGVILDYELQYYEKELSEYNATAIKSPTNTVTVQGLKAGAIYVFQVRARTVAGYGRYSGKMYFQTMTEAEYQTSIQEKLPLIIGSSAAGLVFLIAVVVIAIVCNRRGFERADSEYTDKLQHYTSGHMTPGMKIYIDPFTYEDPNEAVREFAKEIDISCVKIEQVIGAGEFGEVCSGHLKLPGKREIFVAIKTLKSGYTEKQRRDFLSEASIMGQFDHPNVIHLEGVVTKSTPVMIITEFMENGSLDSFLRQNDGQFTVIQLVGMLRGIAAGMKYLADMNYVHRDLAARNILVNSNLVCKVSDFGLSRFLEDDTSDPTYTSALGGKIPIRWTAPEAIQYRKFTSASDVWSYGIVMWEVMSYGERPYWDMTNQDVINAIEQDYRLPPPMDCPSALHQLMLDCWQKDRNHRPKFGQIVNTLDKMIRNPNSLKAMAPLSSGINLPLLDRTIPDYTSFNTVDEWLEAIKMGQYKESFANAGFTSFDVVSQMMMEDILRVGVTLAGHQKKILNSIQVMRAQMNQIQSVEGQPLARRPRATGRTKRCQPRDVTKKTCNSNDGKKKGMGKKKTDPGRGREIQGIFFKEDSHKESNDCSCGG
Source text: The effect of potential modulators of kinase activity can be measured in a variety of different assays known in the art. For example, direct radiometric, indirect FRET or AlphaScreen assays may be used to assess the level of phosphorylation of a substrate in the presence of test compounds in order to determine the inhibitory affect of the compound on the kinase. Invitrogen (Carlsbad, Calif.) uses a FRET based assay for Btk, EGFR, EphB2, Flt3, lrak4, Kdr, MAP2K1, MAPKAPK2, PDGFRB, PKC theta, Stk6 and Yes. For these assays, compounds of the invention were screened by Invitrogen using Z′-Lyte™ kinase assay.
Briefly, the Invitrogen kinase assay involves use of a specific peptide substrate optimized for each kinase, containing a fluorophore at each end that make up the FRET pair. The peptide sensitivity to proteolytic cleavage depends on phosphorylation of the peptide. Non-phosphorylated peptide is cleaved by a protease while peptide phosphorylated by the kinase is not cleaved. Cleavage of the peptide disrupts the FRET between the donor (coumarin) and acceptor (fluorescein) fluorophores, resulting in an increase in the ratio of donor emission to acceptor emission. The emission ratio of coumarin to fluorescein is used to assess the reaction progress. The extent of phosphorylation is determined from the emission ratio, which is low when the kinase is active (phosphorylated peptide is not cleaved, FRET pair connected) or higher for inhibited kinase (non-phosphorylated peptide is cleaved, FRET pair separated). Thus, the assay involves a kinase reaction in the presence of varying concentrations of a given compound, a development reaction with site specific protease, and detection of the fluorescent emission ratio of coumarin and fluorscein. […] Reaction conditions for each kinase are determined to provide optimal reaction times, incubation temperature, kinase and ATP concentrations. Test samples are made up in 1× kinase buffer (50 mM HEPES pH 7.5, 50 mM MgCl2, 5 mM EGTA, 0.05% BRIJ-35) and compound at desired concentration prepared in DMSO such that the final DMSO is 1%. […] Typically, assay plates are prepared to 10 μl final volume per sample, adding 2.5 μl of compound at 4× the desired concentration in 4% DMSO (serial dilution of compound provides concentration curve), 5 μl of the desired kinase mixed with Z′-LYTE™ peptide substrate (2× in 2× kinase buffer, final peptide at 2 μM), and 2.5 μl of 4×ATP solution. All kinase except for MAP2K1 were at 10 μM ATP in the kinase reaction, while MAP2K1 was at 100 μM. Samples are mixed and the kinase reaction is incubated 1 hour at room temperature, after which 5 μl of development solution is added and mixed. After incubation for another 1 hour at room temperature, 5 μl of stop reagent is added to each sample and mixed. The fluorescence signals are measured to determine the emission ratio.

FGFR1 = target: T4, FGFR1 (Homo sapiens, UniProt P11362, C488A/C584S); assay: AlphaScreen kinase assay, FGFR1; details: read-out: IC50, activity toward kinase FGFR
T4 construct: P1351.pET N6 BI-PTP FGFR A458-E765-X C488A, C584S; made in house; host or cells: E. coli (PTP1B co-expressed)
T4 sequence (P11362 458-765 C488A/C584S): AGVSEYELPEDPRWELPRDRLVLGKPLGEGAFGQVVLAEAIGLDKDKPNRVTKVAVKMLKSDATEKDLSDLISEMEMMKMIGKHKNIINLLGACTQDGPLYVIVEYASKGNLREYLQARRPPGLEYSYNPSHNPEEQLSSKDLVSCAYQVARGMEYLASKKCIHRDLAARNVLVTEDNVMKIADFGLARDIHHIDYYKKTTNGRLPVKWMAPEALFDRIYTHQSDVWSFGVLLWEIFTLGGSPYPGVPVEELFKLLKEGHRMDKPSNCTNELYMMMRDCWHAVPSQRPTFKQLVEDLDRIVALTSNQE

Kdr = target: T5, Kdr (Homo sapiens, UniProt P35968); assay: Z'-Lyte FRET kinase assay (Invitrogen), Kdr; details: read-out: IC50, activity toward kinase Kdr
T5 construct: purchased Invitrogen (assay run by Invitrogen)
T5 sequence (P35968 20-1356): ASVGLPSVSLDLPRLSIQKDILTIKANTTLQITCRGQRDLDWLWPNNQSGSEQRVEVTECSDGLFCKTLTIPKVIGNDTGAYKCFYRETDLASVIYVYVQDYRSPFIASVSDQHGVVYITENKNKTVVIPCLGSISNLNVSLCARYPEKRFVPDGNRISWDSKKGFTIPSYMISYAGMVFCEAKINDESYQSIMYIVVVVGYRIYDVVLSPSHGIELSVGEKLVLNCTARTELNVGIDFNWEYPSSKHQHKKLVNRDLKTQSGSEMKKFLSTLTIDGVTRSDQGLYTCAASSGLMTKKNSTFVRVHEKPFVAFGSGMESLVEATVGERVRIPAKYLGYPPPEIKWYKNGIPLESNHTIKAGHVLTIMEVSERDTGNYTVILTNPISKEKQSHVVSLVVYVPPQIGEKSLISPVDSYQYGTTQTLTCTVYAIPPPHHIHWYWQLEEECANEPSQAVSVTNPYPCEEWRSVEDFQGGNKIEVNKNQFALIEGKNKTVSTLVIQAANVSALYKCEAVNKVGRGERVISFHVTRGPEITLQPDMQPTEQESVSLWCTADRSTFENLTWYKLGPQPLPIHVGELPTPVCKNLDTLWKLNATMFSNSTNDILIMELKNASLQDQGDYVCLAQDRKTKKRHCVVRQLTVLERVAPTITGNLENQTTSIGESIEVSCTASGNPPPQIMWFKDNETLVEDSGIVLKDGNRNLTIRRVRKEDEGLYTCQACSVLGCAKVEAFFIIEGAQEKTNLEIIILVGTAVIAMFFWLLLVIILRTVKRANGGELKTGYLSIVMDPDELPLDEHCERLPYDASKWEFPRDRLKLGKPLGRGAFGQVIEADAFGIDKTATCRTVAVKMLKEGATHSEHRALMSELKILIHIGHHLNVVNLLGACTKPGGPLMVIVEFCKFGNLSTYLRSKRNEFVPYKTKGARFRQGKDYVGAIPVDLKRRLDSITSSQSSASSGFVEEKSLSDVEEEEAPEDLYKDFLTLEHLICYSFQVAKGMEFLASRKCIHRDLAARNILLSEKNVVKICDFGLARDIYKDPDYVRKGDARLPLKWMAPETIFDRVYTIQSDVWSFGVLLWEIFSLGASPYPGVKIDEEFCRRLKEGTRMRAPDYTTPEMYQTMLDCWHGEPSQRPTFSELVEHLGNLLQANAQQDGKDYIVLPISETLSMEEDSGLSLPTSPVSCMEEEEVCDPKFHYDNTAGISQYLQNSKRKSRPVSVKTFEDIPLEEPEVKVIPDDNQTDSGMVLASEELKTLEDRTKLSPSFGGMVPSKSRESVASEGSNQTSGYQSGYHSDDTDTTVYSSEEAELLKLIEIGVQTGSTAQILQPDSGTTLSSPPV

Ret = target: T6, Ret (Homo sapiens, UniProt P07949); assay: AlphaScreen kinase assay, Ret; details: read-out: IC50, activity toward kinase Ret
T6 construct: P1378.pET-SF BI-PTP RET H661-R1012 HIS; made in house
T6 sequence (P07949 with tags, fused parts or gaps): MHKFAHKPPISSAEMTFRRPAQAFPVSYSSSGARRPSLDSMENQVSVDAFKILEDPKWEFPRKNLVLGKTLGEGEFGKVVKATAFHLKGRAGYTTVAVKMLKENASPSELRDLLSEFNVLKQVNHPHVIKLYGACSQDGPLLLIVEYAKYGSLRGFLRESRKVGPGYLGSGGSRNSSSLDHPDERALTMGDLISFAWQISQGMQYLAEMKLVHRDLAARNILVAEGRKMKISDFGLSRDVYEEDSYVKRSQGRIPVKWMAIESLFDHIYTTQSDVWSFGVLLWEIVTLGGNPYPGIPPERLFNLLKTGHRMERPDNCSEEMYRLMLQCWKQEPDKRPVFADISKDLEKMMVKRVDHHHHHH

Stk6 = target: T7, Stk6 (Homo sapiens, UniProt O14965); assay: Z'-Lyte FRET kinase assay (Invitrogen), Stk6; details: read-out: IC50, activity toward kinase Stk6
T7 construct: purchased Invitrogen (Carlsbad, Calif.), screening service
T7 sequence (O14965 1-403): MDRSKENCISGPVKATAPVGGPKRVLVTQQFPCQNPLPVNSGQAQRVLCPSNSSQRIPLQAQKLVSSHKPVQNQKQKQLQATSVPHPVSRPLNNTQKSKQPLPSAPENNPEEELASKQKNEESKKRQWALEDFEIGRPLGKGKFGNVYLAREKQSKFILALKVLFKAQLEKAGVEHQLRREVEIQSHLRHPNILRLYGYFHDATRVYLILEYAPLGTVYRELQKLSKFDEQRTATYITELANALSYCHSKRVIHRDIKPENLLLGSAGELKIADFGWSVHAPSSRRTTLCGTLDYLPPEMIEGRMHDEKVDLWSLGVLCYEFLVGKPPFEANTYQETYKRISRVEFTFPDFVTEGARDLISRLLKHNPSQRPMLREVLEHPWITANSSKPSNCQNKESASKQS

Yes = target: T8, Yes (Homo sapiens, UniProt P07947); assay: Z'-Lyte FRET kinase assay (Invitrogen), Yes; details: read-out: IC50, activity toward kinase Yes
T8 construct: purchased Invitrogen (Carlsbad, Calif.), screening service
T8 sequence (P07947 whole entry): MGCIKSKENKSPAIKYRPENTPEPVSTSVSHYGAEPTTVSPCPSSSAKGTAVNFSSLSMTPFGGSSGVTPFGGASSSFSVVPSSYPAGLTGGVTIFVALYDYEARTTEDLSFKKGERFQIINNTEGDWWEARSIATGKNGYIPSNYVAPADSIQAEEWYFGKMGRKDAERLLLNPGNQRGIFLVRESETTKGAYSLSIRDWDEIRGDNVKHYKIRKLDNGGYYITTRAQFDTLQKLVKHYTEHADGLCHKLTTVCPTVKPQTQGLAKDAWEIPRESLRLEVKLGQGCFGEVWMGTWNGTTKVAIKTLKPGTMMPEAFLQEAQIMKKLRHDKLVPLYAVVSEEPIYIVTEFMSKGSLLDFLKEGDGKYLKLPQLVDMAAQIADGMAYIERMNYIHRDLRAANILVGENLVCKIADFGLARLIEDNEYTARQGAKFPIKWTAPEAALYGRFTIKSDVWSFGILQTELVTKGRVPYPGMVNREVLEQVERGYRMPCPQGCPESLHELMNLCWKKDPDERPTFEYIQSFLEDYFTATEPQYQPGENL
How it was run: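 Inhibition was inferred from protease cleavage of non-phosphorylated peptide, measured as a coumarin/fluorescein ratio. Kinase reactions used 10 μM ATP for 1 h at room temperature.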

B-Raf = target: T9, B-Raf (Homo sapiens, UniProt P15056); assay: AlphaScreen kinase assay, B-Raf; details: read-out: IC50, activity toward kinase B-Raf
T9 construct: purchased Upstate Biotechnology

Jnk3 = target: T10, Jnk3 (Homo sapiens, UniProt P53779); assay: AlphaScreen kinase assay, Jnk3; details: read-out: IC50, activity toward kinase Jnk3
T10 construct: purchased Upstate Biotechnology
T10 sequence (P53779 whole entry): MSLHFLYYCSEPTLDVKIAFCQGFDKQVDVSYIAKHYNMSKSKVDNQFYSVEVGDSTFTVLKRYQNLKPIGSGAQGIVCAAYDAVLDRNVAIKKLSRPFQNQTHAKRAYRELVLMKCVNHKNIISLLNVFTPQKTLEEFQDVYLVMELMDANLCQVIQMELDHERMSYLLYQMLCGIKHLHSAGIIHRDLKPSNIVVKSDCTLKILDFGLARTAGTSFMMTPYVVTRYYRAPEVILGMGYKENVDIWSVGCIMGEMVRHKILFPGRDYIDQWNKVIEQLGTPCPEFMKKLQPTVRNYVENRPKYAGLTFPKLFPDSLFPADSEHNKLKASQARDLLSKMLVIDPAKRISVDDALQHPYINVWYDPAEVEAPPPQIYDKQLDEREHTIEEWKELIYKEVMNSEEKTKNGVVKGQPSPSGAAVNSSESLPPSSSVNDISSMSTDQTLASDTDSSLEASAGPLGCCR

Kit = target: T11, Kit (Homo sapiens, UniProt P10721); assay: AlphaScreen kinase assay, Kit; details: read-out: IC50, activity toward kinase Kit
T11 construct: P1332.N6 BI PTP KIT M552-K948-X COD; His6 (N); made in house; host or cells: E. coli (PTP1B co-expressed)
T11 sequence (P10721 with tags, fused parts or gaps): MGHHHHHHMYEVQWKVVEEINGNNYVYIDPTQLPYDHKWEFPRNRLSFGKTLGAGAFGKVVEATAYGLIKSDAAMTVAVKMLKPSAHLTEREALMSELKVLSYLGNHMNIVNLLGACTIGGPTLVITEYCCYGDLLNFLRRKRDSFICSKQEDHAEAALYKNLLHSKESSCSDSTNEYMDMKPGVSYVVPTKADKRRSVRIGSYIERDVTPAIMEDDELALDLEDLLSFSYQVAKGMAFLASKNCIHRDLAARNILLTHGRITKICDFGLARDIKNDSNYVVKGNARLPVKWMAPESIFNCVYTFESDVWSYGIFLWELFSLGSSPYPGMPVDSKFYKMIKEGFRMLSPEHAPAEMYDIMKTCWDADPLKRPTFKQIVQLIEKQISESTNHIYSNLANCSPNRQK

Abl = target: T12, Abl (Homo sapiens, UniProt P00519); assay: AlphaScreen kinase assay, Abl; details: read-out: activity toward kinase Abl, IC50
T12 construct: P1121. pET-SPEC BI-PTP Abl G227-V515-X; His6 (N); made in house; host or cells: E. coli (PTP1B co-expressed)
T12 sequence (P00519 with tags, fused parts or gaps): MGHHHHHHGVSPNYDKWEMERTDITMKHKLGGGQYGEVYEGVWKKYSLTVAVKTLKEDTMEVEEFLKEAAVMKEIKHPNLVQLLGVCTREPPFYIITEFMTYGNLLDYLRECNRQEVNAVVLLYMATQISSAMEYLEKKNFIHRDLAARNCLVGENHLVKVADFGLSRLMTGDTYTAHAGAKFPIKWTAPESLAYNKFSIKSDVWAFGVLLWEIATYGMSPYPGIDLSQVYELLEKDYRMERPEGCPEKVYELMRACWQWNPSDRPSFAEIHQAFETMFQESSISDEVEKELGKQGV
How it was run: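 Bead-proximity format: phosphopeptide links anti-phospho antibody acceptor beads to streptavidin donor beads via biotin tag. Compounds were serially diluted 1:3 (8 points) from 20 mM stocks in DMSO.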

Fms = target: T13, Fms (Homo sapiens, UniProt P07333); assay: AlphaScreen kinase assay, Fms; details: read-out: IC50, activity toward kinase Fms
T13 construct: purchased Upstate Biotechnology
T13 sequence (P07333 20-972): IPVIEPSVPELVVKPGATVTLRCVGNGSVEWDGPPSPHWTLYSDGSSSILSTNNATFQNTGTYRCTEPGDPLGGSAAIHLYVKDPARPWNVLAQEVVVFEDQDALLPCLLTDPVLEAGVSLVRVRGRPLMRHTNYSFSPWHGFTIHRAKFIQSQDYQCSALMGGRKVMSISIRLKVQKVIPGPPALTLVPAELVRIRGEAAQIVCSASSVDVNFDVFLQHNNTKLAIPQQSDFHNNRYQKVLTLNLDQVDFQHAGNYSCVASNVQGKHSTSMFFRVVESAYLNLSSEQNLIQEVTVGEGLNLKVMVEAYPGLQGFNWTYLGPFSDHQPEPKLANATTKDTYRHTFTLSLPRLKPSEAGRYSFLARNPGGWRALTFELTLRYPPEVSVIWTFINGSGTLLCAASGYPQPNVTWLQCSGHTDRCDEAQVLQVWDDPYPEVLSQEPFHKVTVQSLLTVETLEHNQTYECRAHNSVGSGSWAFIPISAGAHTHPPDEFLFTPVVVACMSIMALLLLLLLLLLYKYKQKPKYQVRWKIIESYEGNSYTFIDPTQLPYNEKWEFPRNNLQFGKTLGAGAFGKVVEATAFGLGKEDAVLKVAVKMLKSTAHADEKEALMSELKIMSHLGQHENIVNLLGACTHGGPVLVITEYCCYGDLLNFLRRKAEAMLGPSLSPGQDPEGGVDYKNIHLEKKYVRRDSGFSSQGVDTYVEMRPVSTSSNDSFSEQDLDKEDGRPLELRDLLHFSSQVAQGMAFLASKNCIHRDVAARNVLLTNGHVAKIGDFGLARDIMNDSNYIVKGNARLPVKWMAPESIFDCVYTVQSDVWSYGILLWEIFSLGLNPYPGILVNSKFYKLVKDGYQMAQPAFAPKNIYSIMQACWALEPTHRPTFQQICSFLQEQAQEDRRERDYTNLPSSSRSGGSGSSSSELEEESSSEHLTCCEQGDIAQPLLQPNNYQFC

Measured: IC50

T1 sequence (P15056 with tags, fused parts or gaps V600E): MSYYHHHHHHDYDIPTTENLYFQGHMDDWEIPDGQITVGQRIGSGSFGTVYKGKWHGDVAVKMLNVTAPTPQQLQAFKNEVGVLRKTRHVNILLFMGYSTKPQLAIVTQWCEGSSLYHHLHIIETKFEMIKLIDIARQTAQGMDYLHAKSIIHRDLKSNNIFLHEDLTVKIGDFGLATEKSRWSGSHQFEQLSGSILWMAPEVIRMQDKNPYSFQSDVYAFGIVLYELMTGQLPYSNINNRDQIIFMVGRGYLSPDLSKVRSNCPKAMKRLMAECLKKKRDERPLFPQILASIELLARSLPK

O=C(c1cccc(Cl)c1Cl)c1c[nH]c2nccc(-c3cccnc3)c12 [Compound P-0043]
not listed: B-Raf | Jnk3 | Kit | Abl | Fms
≤ 10 µM: all other assays above

CCc1cnc2[nH]cc(C(=O)c3cccc(O)c3)c2c1 [Compound P-0059]
not listed: Stk6 | Abl | Fms
≤ 10 µM: all other assays above

O=C(c1cccc(O)c1)c1c[nH]c2ncc(-c3cc(F)cc(F)c3)cc12 [Compound P-0074]
≤ 10 µM: Abl | B-Raf V600E | Btk | EphB2 | Kdr | Yes

COc1ccc(-c2ccnc3[nH]cc(C(=O)c4cccc(Cl)c4Cl)c23)cn1 [Compound P-0107]
≤ 10 µM: B-Raf V600E | Btk | EphB2 | Kdr | Ret | Yes

Brc1cnc2[nH]cc(Sc3ccccc3)c2c1 [Compound P-0125]
≤ 10 µM: Btk | EphB2 | Kdr | Yes

NC(=O)c1cccc(-c2ccnc3[nH]cc(C(=O)c4cccc(Cl)c4Cl)c23)c1 [Compound P-0139]
≤ 10 µM: B-Raf V600E | Btk | EphB2 | Kdr | Ret | Yes

COc1cccc(Sc2c[nH]c3ncc(Br)cc23)c1 [Compound P-0145]
≤ 10 µM: Btk | EphB2 | Fms | Kdr | Yes

Reference: US8415469B2, “Compounds and methods for kinase modulation, and indications therefor” (Plexxikon Inc., priority 2005, dated 2013)
